The test system of assay [1] is Rattus norvegicus. The assay can be described thus: Antisecretory activity at 32 mg/kg dose administered intraduodenally in the pylorus-ligated rat. The settings on record: route intraduodenal. It is filed as functional.
In assay [2] the test system is Rattus norvegicus. In words: Antisecretory activity (total acid output) at 2 mg/kg dose administered intraduodenally in the pylorus-ligated rat. The format is functional. The settings on record: route intraduodenal.
Assay [3] concerns Rattus norvegicus. The assay can be described thus: Antisecretory activity (total acid output) at 4 mg/kg dose administered intraduodenally in the pylorus-ligated rat. It is filed as functional. The settings on record: route intraduodenal.
Assay [4] concerns Rattus norvegicus. In words: Antisecretory activity (total acid output) at 8 mg/kg dose administered intraduodenally in the pylorus-ligated rat. The format is functional. The settings on record: route intraduodenal.
Assay [5] relates to Canis familiaris. In words: Antisecretory activity (total acid output) at 4 mg/kg dose administered (po) in Gastric pouch dog was determined by dose related inhibition of food stimulated gastric acid secretion. The format is functional, Canis lupus familiaris, Stomach. Also noted: scale not given: the % may be the effect or the level left.
Assay [6] concerns Rattus norvegicus. The assay can be described thus: Antisecretory activity (total acid output) at 16 mg/kg dose administered intraduodenally in the pylorus-ligated rat. The format is functional. To be noted: route intraduodenal.
Assay [7] concerns Canis familiaris. The assay can be described thus: Antisecretory activity (total acid output) at 2 mg/kg dose administered (po) in Gastric pouch dog was determined by dose related inhibition of food stimulated gastric acid secretion. The format is functional, Canis lupus familiaris, Stomach. Also noted: scale not given: the % may be the effect or the level left.
The test system of assay [8] is Canis familiaris. The assay can be described thus: Antisecretory activity (total acid output) at 8 mg/kg dose administered (po) in Gastric pouch dog was determined by dose related inhibition of food stimulated gastric acid secretion. It is filed as functional, Canis lupus familiaris, Stomach. Also noted: scale not given: the % may be the effect or the level left.
The test system of assay [9] is Rattus norvegicus. The assay can be described thus: Antisecretory activity (total acid output) at 0.5 mg/kg dose administered intraduodenally in the pylorus-ligated rat. The format is functional. To be noted: route intraduodenal.
Assay [10] relates to Canis familiaris. The assay can be described thus: Antisecretory activity (total acid output) at 16 mg/kg dose administered (po) in Gastric pouch dog was determined by dose related inhibition of food stimulated gastric acid secretion. It is filed as functional, Canis lupus familiaris, Stomach. Also on record: scale not given: the % may be the effect or the level left.

As to `CCn1c(=O)c(C(=O)NN)c(N)c2cccnc21`, the Control in assay [1] was 29%.

In [1], `CCn1c(=O)c(C(N)=O)c(N)c2ccc(C)nc21` registered a Control of 55%. Same read-out and setting: the figure for `CCn1c(=O)c(C(=O)O)c(N)c2cc(NC(C)=O)cnc21` is 82%; for `CCCn1c(=O)c(C(=O)OCC)c(N)c2cccnc21` it is 30%. Still for that read-out and setting: the figure for `CCOC(=O)c1c(Cl)c2ccc(C)nc2n(CC)c1=O` is 66%; for `CCOC(=O)c1c(O)c2cccnc2n(CC)c1=O` it is 63%; for `CCOC(=O)c1c(N2CCCC2)c2cccnc2n(C)c1=O` it is 51%. The compound `CCOC(=O)c1c(N)c2cccnc2n(CC(C)C)c1=O` gave a Control in [1] of 28%. On the same count and under the same terms, as for `CCn1c(=O)c(C(=O)O)c(N)c2cccnc21`, the figure is 37%. On the same count and under the same terms, as for `CCn1c(=O)c(C(N)=O)c(N)c2cccnc21`, the figure is 19%; as for `CCOC(=O)c1c(N)c2cccnc2n(C2CCCCC2)c1=O`, 48%. For `CCOC(=O)c1c(N2CCNCC2)c2ccc(C)nc2n(CC)c1=O`, the Control in assay [1] came out at 10%. Turning to `C=CCn1c(=O)c(C(=O)O)c(NC(=O)CCl)c2cccnc21`, in [1], the Control is 63%. On to `CCOC(=O)c1c(N2CCN(C)CC2)c2ccc(C)nc2n(CC)c1=O`, for which the Control was found to be 85% in assay [2]; 66% in assay [3]; 45% in assay [4]; 7.5% in [1]; 40% in assay [5]; 28% in assay [6]. In addition, the Control in assay [7] was 95%. In assay [1], `CCOC(=O)c1c(O)nc2nc(C)ccc2c1N1CCN(C)CC1` returned a Control of 34%. On to `CCOC(=O)c1c(NCCCN(C)C)c2ccc(C)nc2n(CC)c1=O`, for which the Control in assay [1] came to 77%.

In assay [1], `CCNc1c(C(=O)OCC)c(=O)n(CC)c2nc(C)ccc12` came in with a Control of 36%. Same read-out and setting: as for `CCn1c(=O)c(C#N)c(N)c2ccc(C)nc21`, the figure is 62%.

In turn, `CCOC(=O)c1c(N)c2ccc(C)nc2n(CCO)c1=O` yielded a Control in [1] of 74%. Same read-out and setting: the figure for `CCOC(=O)c1c(N(C(C)=O)C(C)=O)c2cccnc2n(CC)c1=O` is 59%. For `CCN(CC)CCNC(=O)c1c(N)c2cccnc2n(CC)c1=O`, the Control in assay [1] is on record as 56%. With `CCOC(=O)c1c(N2CCCC2)c2ccc(C)nc2n(CC)c1=O`, the Control in [1] stood at 29%.

As for `CCOC(=O)c1c(N(C)CCO)c2ccc(C)nc2n(CC)c1=O`, in assay [1], the Control was 59%. In turn, `CCn1c(=O)c(C(=O)O)c(N2CCN(C)CC2)c2ccc(C)nc21` yielded a Control in assay [1] of 89%.

Take `CCC(C)OC(=O)c1c(N)c2cccnc2n(CC)c1=O` (stereo unspecified): in assay [1], the Control was 42%. On the same count and under the same terms, the figure for `CCN(CC)CCOC(=O)c1c(N)c2cccnc2n(CC)c1=O` is 40%. Take `CCOC(=O)c1c(NC(C)=O)c2cccnc2n(CC)c1=O`: the Control in assay [1] is 67%.

`CCOC(=O)c1c(N2CCN(C(=O)OCC)CC2)c2ccc(C)nc2n(CC)c1=O` gave a Control in [1] of 70%.

For `CCOC(=O)c1c(N2CCOCC2)c2ccc(C)nc2n(CC)c1=O`, the Control in assay [1] turned out to be 22%.

As for `CCn1c(=O)c(C#N)c(N2CCCC2)c2ccc(C)nc21`, the Control in [1] is listed as 67%. Compound `CCOC(=O)c1c(O)c2ccc(C)nc2n(C)c1=O` displayed a Control in assay [1] of 51%. Take `CCOC(=O)c1c(N)c2cccnc2n(C)c1=O`: in assay [1], the Control was found to be 21%. The same measure, in the same setting: the figure for `CCOC(=O)c1c(O)nc2ncccc2c1N` is 44%; for `C=CCn1c(=O)c(C(=O)OCC)c(N2CCCC2)c2ccc(C)nc21` it is 59%; for `Nc1c(C(=O)O)c(O)nc2ncccc12` it is 72%.

For `CCOC(=O)c1c(N(C(C)=O)C(C)=O)c2c(C)cc(C)nc2n(CC)c1=O`, the Control in [1] is 76%. Compound `CCOC(=O)c1c(N2CCN(C)CC2)c2cccnc2n(CC)c1=O` gave a Control in [1] of 17%. On the same count and under the same terms, as for `CCOC(=O)c1c(N)c2c(C)cc(C)nc2n(CC)c1=O`, the figure is 50%; as for `CCOC(=O)c1c(OCC)c2ccc(C)nc2n(CC)c1=O`, 46%. Same read-out and setting: the figure for `CCOC(=O)c1c(O)nc2nc(C)cc(C)c2c1N` is 89%; for `C=CCn1c(=O)c(C(=O)OCC)c(N)c2cccnc21` it is 22%; for `CCOC(=O)c1c(N2CCN(C)CC2)c2ccc(C)nc2n(C)c1=O` it is 9%. On to `CCOC(=O)C(=O)Nc1c(C(=O)OCC)c(=O)n(CC)c2ncccc12`, for which the Control in assay [1] is reported as 28%. `CCOC(=O)c1c(N)c2cccnc2n(CC)c1=O`: the Control is given as 58% in assay [2]; 55% in assay [3]; 35% in [4]; 18% in assay [1]; 92% in assay [5]; 17% in [6]. Further, the Control was determined as 97% in assay [8], 100% in assay [9] and 62% in [10]. For the compound `C=CCn1c(=O)c(C(=O)OCC)c(O)c2ccc(C)nc21`, the Control in [1] is recorded as 73%. Compound `CCNC(=O)c1c(N)c2cccnc2n(CC)c1=O` gave a Control in assay [1] of 28%. On the same count and under the same terms, the figure for `CCNc1cc(C)c2c(N)c(C(=O)OCC)c(=O)n(CC)c2n1` is 58%; for `CCOC(=O)c1c(N2CCCC2)c2ccc(C)nc2n(C)c1=O` it is 32%. Turning to `CCOC(=O)c1c(O)c2ccc(C)nc2n(CC)c1=O`, in assay [1], the Control was determined as 53%.

As for `CCCCOC(=O)c1c(N)c2cccnc2n(CC)c1=O`, the Control in assay [1] was found to be 26%. As to `CCOC(=O)c1c(NC(=O)C(F)(F)F)c2cccnc2n(CC)c1=O`, the Control in assay [1] was 22%.

`CCOC(=O)c1c(N2CC[N+](C)(C)CC2)c2ccc(C)nc2n(CC)c1=O.[Cl-]` yielded a Control in assay [1] of 123%. Same read-out and setting: as for `CCOC(=O)c1c(N2CCN(C)CC2)c2cccnc2n(C)c1=O`, the figure is 25%.

`CCOC(=O)c1c(N(CC)CC)c2ccc(C)nc2n(CC)c1=O`: the Control in [1] came out at 55%.

As to `CCOC(=O)c1c(N)c2ccc(C)nc2n(CC)c1=O`, the Control in [1] was found to be 33%.

Turning to `CCOC(=O)c1c(NCC(O)c2ccccc2)c2ccc(C)nc2n(CC)c1=O` (stereo unspecified), in assay [1], the Control came to 111%. Regarding `CN/C(=N\CCSCc1nc[nH]c1C)NC#N` [CIMETIDINE], the “Inhibition of gastric acid secretion (% relative to control)” value in assay [1] is reported as 80%.

(Values after ChEMBL document CHEMBL1123567, “2-Oxo-1,8-naphthyridine-3-carboxylic acid derivatives with potent gastric antisecretory properties” (1987).)
